From US9532990B2 (Zhejiang DTRM Biopharma Co. Ltd., priority 2014, dated 2017)
pIC50: −log10 of the molar value. Where two headings read alike, the source gives them in different places.

Legend:
[1] = dogs, 24 mg/kg, U.S. FDA NDA 205552 pharmacological review, cited from earlier work
[2] = rats, 40 mg/kg, U.S. FDA NDA 205552 pharmacological review, cited from earlier work
BTK wild type = BTK wild type (Homo sapiens (Human), UniProt Q06187); test: Inhibition assay of BTK kinase activity (HTRF); format: biochemical
Chain of BTK wild type (Q06187 whole entry): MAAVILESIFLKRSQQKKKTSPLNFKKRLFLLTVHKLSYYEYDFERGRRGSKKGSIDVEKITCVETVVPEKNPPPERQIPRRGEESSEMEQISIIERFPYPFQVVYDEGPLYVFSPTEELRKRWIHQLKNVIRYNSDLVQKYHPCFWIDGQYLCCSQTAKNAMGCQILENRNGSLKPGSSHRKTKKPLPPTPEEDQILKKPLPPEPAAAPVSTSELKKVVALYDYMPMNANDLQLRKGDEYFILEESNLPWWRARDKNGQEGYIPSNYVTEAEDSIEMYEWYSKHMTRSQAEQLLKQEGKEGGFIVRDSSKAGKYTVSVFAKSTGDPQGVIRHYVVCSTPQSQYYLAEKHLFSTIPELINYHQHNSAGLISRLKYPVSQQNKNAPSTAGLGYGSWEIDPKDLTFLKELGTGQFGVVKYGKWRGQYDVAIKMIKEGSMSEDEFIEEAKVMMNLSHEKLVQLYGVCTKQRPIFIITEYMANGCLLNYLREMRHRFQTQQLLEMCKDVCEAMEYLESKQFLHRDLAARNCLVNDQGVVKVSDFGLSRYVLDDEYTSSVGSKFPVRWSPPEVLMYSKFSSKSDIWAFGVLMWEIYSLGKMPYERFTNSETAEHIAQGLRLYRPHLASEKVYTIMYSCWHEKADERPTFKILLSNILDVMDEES
Description: Inhibition Assay of BTK Kinase Activity:
The enzyme reaction mixture of BTK wild type standard HTRF assay contained 1 nM BTK wild type, 1 μM biotin-TK1 peptide, and 30 μM ATP in a buffer. The enzyme reaction were carried out at room temperature for 60 minutes. […] The plates were incubated at room temperature for 60 minutes and then read in the Envision plate reader.

TMD-8 lymphoma xenograft = TMD-8 lymphoma xenograft SCID mouse model; format: in vivo; details: BID, 14 days (FIG. 1); for Antitumor effect: Oral
Description: Compounds (Compounds 45 and others) alone and its combinations were evaluated against tumor growth in xenograft models in female CB-17 SCID mice. The TMD-8, DoHH2, WSU-DLCL2 tumor cells were maintained in vitro as a suspension culture in RPMI-1640 medium supplemented with 10% heat inactivated fetal calf serum at 37° C. in an atmosphere of 5% CO2 in air. The tumor cells were routinely subcultured twice weekly. The cells growing in an exponential growth phase were harvested and counted for tumor inoculation. Each mouse was inoculated subcutaneously at the right flank with the tumor cells (10×10^6) in 0.2 ml of PBS with Matrigel (1:1) for tumor development. The treatments were started after the average tumor size reached approximately 100-200 mm^3. Each group consisted of 6-10 tumor-bearing mice. The testing article (vehicle, compound or combination) was orally administrated to the mice according to the predetermined doses for 14-days or 21-days. Animal body weight and tumor volume were measured every 2-or 3-days throughout the treatment.

[3] = all compounds with IC50 of less 10 nM, read-out: IC50 (BTK)

For `C=CC(=O)N1CCC[C@@H](n2nc(-c3ccc(Oc4ccccc4)cc3)c3c(N)ncnc32)C1` [ibrutinib], the AUC ([1]; female) is given as 1,850 h*ng/mL, the AUC ([1]; male) is given as 1,780 h*ng/mL and the “AUC (area under the curve)” value ([2]; female) is given as 3300 ng·h/mL. The “AUC (area under the curve)” value ([2]; male) was 1,000 h*ng/mL.

With `C=CC(=O)N[C@H]1CC[C@@H](n2nc(-c3ccc(Oc4cccc(F)c4)cc3F)c3c(N)ncnc32)CC1` [Compound 13, N-((1s,4s)-4-(4-amino-3-(2-fluoro-4-(3-fluorophenoxy)phenyl)-1H-pyrazolo[3,4-d]pyrimidin-1-yl)cyclohexyl)acrylamide] the pIC50 (BTK wild type; [3]) was over 8.00 and the pIC50 (BTK wild type; read-out: BTK IC50) was 9.00.

`NC(=O)/C=C/C(=O)N1CCCC(n2nc(-c3ccc(Oc4c(F)c(F)cc(F)c4F)cc3F)c3c(N)ncnc32)C1` (stereo not shown) [Compound 41, (E)-4-(3-(4-amino-3-(2-fluoro-4-(2,3,5,6-tetrafluorophenoxy)phenyl)-1H-pyrazolo[3,4-d]pyrimidin-1-yl)piperidin-1-yl)-4-oxobut-2-enamide] gave a pIC50 (BTK wild type; read-out: BTK IC50) of 7.77.

Molecule `O=C(CC(=O)C(F)(F)F)Nc1ncnc2c1c(-c1ccc(Oc3c(F)c(F)cc(F)c3F)cc1F)nn2C1CCCNC1` (stereo not shown) [Compound 66, 4,4,4-trifluoro-N-(3-(2-fluoro-4-(2,3,5,6-tetrafluorophenoxy)phenyl)-1-(piperidin-3-yl)-1H-pyrazolo[3,4-d]pyrimidin-4-yl)-3-oxobutanamide] has a pIC50 (BTK wild type; read-out: BTK IC50) of 6.14.

`Nc1ncnc2c1c(-c1ccc(Oc3c(F)c(F)cc(F)c3F)cc1F)nn2[C@@H]1CCN(C(=O)c2nc3ccccc3o2)C1` [Compound 110, ((R)-3-(4-amino-3-(2-fluoro-4-(2,3,5,6-tetrafluorophenoxy)phenyl)-1H-pyrazolo[3,4-d]pyrimidin-1-yl)pyrrolidin-1-yl)(benzo[d]oxazol-2-yl)methanone] gave a pIC50 (BTK wild type; read-out: BTK IC50) of 5.28.

Work on `C=CC(=O)NC1CCC(Cn2nc(-c3ccc(Oc4c(F)c(F)cc(F)c4F)cc3F)c3c(N)ncnc32)C1` (stereo not shown) [Compound 32, N-(3-((4-amino-3-(2-fluoro-4-(2,3,5,6-tetrafluorophenoxy)phenyl)-1H-pyrazolo[3,4-d]pyrimidin-1-yl)methyl)cyclopentyl)acrylamide] yielded a pIC50 (BTK wild type; read-out: BTK IC50) of 5.14.

`C=CC(=O)NC(C)C(C)n1nc(-c2ccc(Oc3c(F)c(F)cc(F)c3F)cc2F)c2c(N)ncnc21` (stereo not shown) [Compound 83, N-(3-(4-amino-3-(2-fluoro-4-(2,3,5,6-tetrafluorophenoxy)phenyl)-1H-pyrazolo[3,4-d]pyrimidin-1-yl)butan-2-yl)acrylamide] showed a pIC50 (BTK wild type; read-out: BTK IC50) of 7.12.

In the case of `C=CC(=O)N1CCC[C@@H](n2nc(-c3ccc(Oc4c(F)c(F)cc(F)c4F)cc3F)c3c(N)ncnc32)C1` [Compound 33, 1-((R)-3-(4-amino-3-(2-fluoro-4-(2,3,5,6-tetrafluorophenoxy)phenyl)-1H-pyrazolo[3,4-d]pyrimidin-1-yl)piperidin-1-yl)prop-2-en-1-one], the Antitumor effect (TMD-8 lymphoma xenograft; 10 mg/kg) was 56%, the Antitumor effect (TMD-8 lymphoma xenograft; 30 mg/kg) was 77% and the “TMD-8 tumor growth suppression” value (TMD-8 lymphoma xenograft; multiple doses, p.o.) was “significant TMD-8 tumor growth suppressions were dose-depended”. It also gave a pIC50 (BTK wild type; [3]) of over 8.00 and a pIC50 (BTK wild type; read-out: BTK IC50) of 8.70.
